Measured values published in US5679638A, “Method for treating a tumor with a chemotherapeutic agent” (Biopure Corporation, priority 1993, dated 1997).

Assays:
FSaIIC tumor cells = experiment: FSaIIC tumor excision / colony forming assay (tumor cell killing); format: in vivo, mouse; conditions: for FSaIIC cell killing by drug, dose dependence: drug alone, increasing dose; for Enhancement of tumor cell killing by UPHS at higher drug doses: higher doses of drug + UPHS vs drug alone
Procedure: The procedures and materials of Example I were employed, except as noted. In this Example, tumors were allowed to grow to approximately 100 mm^3 in volume, which took about one week after tumor cell implantation. At this time, 0.3 ml of UPHS was injected via the tail vein. Immediately afterward, PAM was administered by intraperitoneal injection. The animals were then allowed to breathe air or were placed in a circulating atmosphere of carbogen for 6 hours and then removed to air. The mice were sacrificed 24 hours after treatment to allow for full expression of drug cytotoxicity and repair of potentially lethal damage. The tumors were excised under sterile conditions and single cell suspensions were prepared for a colony forming assay. See Teicher, B. A. et al., "Approaches to Defining the Mechanism of Fluosol-DA 20%/Carbogen Enhancement of Melphalan Antitumor Activity", Cancer Res. 47:513-518 (1987); Teicher, B. A. et al., "Differential Enhancement of Melphalan Cytotoxicity in Tumor and Normal Tissue by Fluosol-DA and Oxygen Breathing", Int. J. Cancer 36:585-589 (1985); Teicher, B. A. et al., "Effects of Various Oxygenation Conditions on the Enhancement by Fluosol-DA of Melphalan Antitumor Activity", Cancer Res. 47:5036-5041 (1987); Teicher, B. A. and S. A. Holden, "A Survey of the Effect of Adding Fluosol-DA 20%/O2 to Treatment with Various Chemotherapeutic Agents", Cancer Treat. Rep. 71:173-177 (1987), Teicher, B. A. et al., "Effect of Various Oxygenation Conditions and Fluosol-DA on Cancer Chemotherapeutic Agents", Biomat., Art. Cells and Art. Organs 16:533-546 (1988). One week later, the plates were stained with crystal violet and colonies of more than 50 cells were counted.
The result for the tumor excision assays and bone marrow toxicity tests with PAM are plotted in FIG. 1 wherein the surviving fraction +SE of cells from the treated groups are compared to untreated controls.
The procedures and materials of Example II were employed except that CTX was administered instead of PAM.

[1] = system: bone marrow granulocyte-macrophage colony forming units (CFU-GM); experiment: Bone marrow toxicity, CFU-GM colony forming assay; format: in vivo, mouse; conditions: drug + UPHS vs drug alone; PAM across entire dosage range
Procedure: The procedures and materials of Example I were employed, except as noted. In this Example, tumors were allowed to grow to approximately 100 mm^3 in volume, which took about one week after tumor cell implantation. At this time, 0.3 ml of UPHS was injected via the tail vein. Immediately afterward, PAM was administered by intraperitoneal injection. The animals were then allowed to breathe air or were placed in a circulating atmosphere of carbogen for 6 hours and then removed to air. The mice were sacrificed 24 hours after treatment to allow for full expression of drug cytotoxicity and repair of potentially lethal damage. The tumors were excised under sterile conditions and single cell suspensions were prepared for a colony forming assay. […] One week later, the plates were stained with crystal violet and colonies of more than 50 cells were counted.
Bone marrow toxicity was determined as follows. […] Colonies of at least 50 cells were scored on an acculite colony counter (Fisher, Springfield, N.J.). The results from three experiments, in which each group was measured in triplicate, were averaged. […]

FSaIIC fibrosarcoma = FSaIIC fibrosarcoma tumor growth delay; format: in vivo, mouse (male C3H/FeJ mice); conditions: PAM 10 mg/kg + Fluosol-DA, carbogen 1 hour

Row | SMILES | Increase in killing of FSaIIC cells by addition of UPHS (FSaIIC tumor cells; CTX 100 mg/kg + UPHS vs CTX alone) | Greater kill of FSaIIC tumor cells with combined treatment (FSaIIC tumor cells; CTX 500 mg/kg (highest dose) + UPHS vs CTX alone) | FSaIIC cell killing by drug, dose dependence (FSaIIC tumor cells) | Enhancement of tumor cell killing by UPHS at higher drug doses (FSaIIC tumor cells) | Increase in bone marrow CFU-GM killing / toxicity by addition of UPHS [1] | Increase in tumor cell killing by addition of UPHS (FSaIIC tumor cells; PAM 10 mg/kg + UPHS vs PAM alone) | Tumor growth delay, with Fluosol-DA and carbogen (FSaIIC fibrosarcoma)
1 | O=P1(N(CCCl)CCCl)NCCCO1 (stereo not shown) [CTX, Cyclophosphamide] | ~20 fold | about 9 fold | killed increasing numbers of FSaIIC cells with increasing doses | the differential between tumor cell kill by CTX alone and CTX plus UPHS decreased as the dose of CTX was increased | 2-3 fold |  | 
2 | N[C@@H](Cc1ccc(N(CCCl)CCCl)cc1)C(=O)O [PAM, Melphalan] |  |  | killed FSaIIC cells in a log-linear manner with increasing dose | the enhancement in tumor cell killing with the combination treatment disappeared | 3 fold | ~10 fold | about 9.5 days
